# Results taken from US7807368B2, “Cyclin-dependent kinase inhibitors as targets for opiod growth factor treatment” (priority 2006, dated 2010).
# Entries after “also recorded” stand apart in the source; their conditions may differ.
# Legend:
# Type in all cases: cell-based, human
# [1] = tested on: p16; assay: Western blot of p16, other CKIs and Cdk4 in SCC-1 cells
# Procedure: Synchronized cells (˜2×10^6) from each treatment were solubilized in 200 μl RIPA buffer (1×PBS, 10 μM IGEPAL, 1 mg/ml SDS, 5 mg/ml deoxycholic acid), containing protease and phosphatase inhibitors (2 μg/ml aprotinin, 3 mg/ml phenylmethyl sulfonyl fluoride (PMSF), 1 mM sodium orthovanidate, 1 μM okadaic acid). Total protein concentrations were measured using the DC protein assay kit (Bio-Rad Laboratories, Hercules, Calif.). Equal amounts of protein (40 μg) were subjected to 10% SDS-PAGE followed by transfer of proteins onto polyvinylidene difluoride (Millipore, Billerica, Mass.) using standard protocols. The following antibodies were purchased from commercial sources: phospho-Rb (Ser795), phospho-Rb (Ser807/811) (Cell Signaling Technology, Beverly, Mass.); phospho-Rb (Thr821) (Biosource, Camarillo, Calif.); Cdk4, cyclin D1, p15, p16, p18, p19 (Santa Cruz Biotechnology, Santa Cruz, Calif.); total Rb, p21, p27 (BD PharMingen, San Diego, Calif.); β-actin (Clone AC-15, Sigma). The following dilutions of primary antibodies were used to detect respective proteins. 1:200 phospho-Rb (Ser795), 1:200 phospho-Rb (Ser807/811); 1:200 phospho-Rb (Thr821); 1:200 Cdk4, 1:200 cyclin D1, 1:100 p16; 1:200 total Rb, 1:200 p21, 1:100 p27. Membranes were probed with secondary anti-rabbit or anti-mouse horseradish peroxidase-conjugated antibodies (GE Healthcare-Amersham Biosciences, Piscataway, N.J.); blots were developed using a chemiluminescence Western blotting detection system (GE Healthcare-Amersham Biosciences).
# To determine equal loading of total protein samples, blots were reprobed with monoclonal antibody against β-actin at a dilution of 1:2000. If necessary, membranes were stripped in stripping buffer (62.5 mM Tris-HCl and 100 mM β-mercaptoethanol/2% SDS, pH 6.7) at 50° C. before being re-probed. Means and SE were determined from 3 or more independent experiments.
# To quantify expression levels or kinase activity, the optical density of each band was determined by densitometry and analyzed by QuickOne (Bio-Rad Laboratories). Each value was normalized to β-actin from the same blot. To report the changes due to OGF treatment, the fold increase was calculated by dividing the normalized value from the OGF treated samples by the normalized value of control samples at each time point; thus, increases due to OGF have values greater than one, and decreases due to OGF have values less than one.
# The p16-targeted siRNAs (antisense:5′ […]-3′; sense (SEQ ID NO:5): 5′ […]-3′(SEQ ID NO:6) were obtained as ready-annealed, purified duplex probes (Invitrogen, Carlsbad, Calif.). For transfection, 2×10^5 cells per well were seeded in 6-well plates containing 1 ml of serum-free media without antibiotics. In each well, 20 nM of p16-siRNA or control siRNA solutions in serum-free media were added. Cells were incubated for 4 h at 37° C. prior to the addition of OGF. Cultures were incubated for additional 20 h, and then 1 ml fresh complete media either lacking or containing OGF was added. At the indicated time points, cells were collected for growth curves or Western blotting. Three or more independent experiments were conducted. The control siRNAs were purchased from Ambion.
# [2] = tested on: SCC-1 cells; assay: Flow cytometry cell cycle distribution, synchronized SCC-1 cells; settings: 10^-6 M OGF, 14 h
# Procedure: For flow cytometry, cells were synchronized with 0.5 μg/ml nocodazole (Sigma-Aldrich) for 24 h, followed by three washes with complete media. Cells were released from growth arrest by addition of complete media or OGF-supplemented media. Synchronized cells were treated with 10^−6 M OGF for 14 h, harvested with 0.25% trypsin-EDTA (Mediatech, Herndon, Va.) and fixed with 70% ethanol at −20° C. for up to 7 days before DNA analysis. DNA content was obtained by incubating cells in PBS containing propidium iodide (0.1 mg/ml) and RNase A (0.02 mg/ml) for 15 min at 22° C. Fluorescence was measured and analyzed using a BD Biosciences FACScan flow cytometer (San Diego, Calif.) and Modfit Software (Topsham, Me.).
# [3] = tested on: p21; assay: Western blot of p21 in Capan-2 cells; settings: 3 hours
# Procedure: (§1) Human pancreatic cancer cell lines BxPC-3, PANC-1, and Capan-2 were obtained from the American Type Culture Collection (Manassas, Va.), and cultured in RPMI, Dulbecco's Modified Medium, or McCoy's 5A medium, respectively. All media were supplemented with 10% fetal bovine serum, 1.2% sodium bicarbonate, and 0.25% antibiotics (5000 units/ml penicillin, 5 μg/ml streptomycin and 10 μg/ml neomycin). OGF was purchased from Sigma-Aldrich (St. Louis, Mo.), dissolved in sterile water, and used at a final concentration of 10^−6 M.
# Synchronized cells (2×10^6) from each treatment were solubilized in 200 μl RIPA buffer (1×PBS, 10 μM IGEPAL, 1 mg/ml SDS, 5 mg/ml deoxycholic acid), containing protease and phosphatase inhibitors (2 μg/ml aprotinin, 3 mg/ml phenylmethyl sulfonyl fluoride, 1 mM sodium orthovanidate, 1 μM okadaic acid). Total protein concentrations were measured using the DC protein assay kit (Bio-Rad Laboratories, Hercules, Calif.). Equal amounts of protein (40 μg) were subjected to 10% SDS-PAGE followed by transfer of proteins onto polyvinylidene difluoride (Millipore, Billerica, Mass.) using standard protocols.
# The p21-targeted siRNAs were obtained from Santa Cruz Biotechnology, and negative control siRNAs were purchased from Ambion (Ambion, Inc., Austin, Tex.). For transfection, 2×10^5 cells per well were seeded in 6-well plates containing 1 ml of media without antibiotics. […]
# [4] = tested on: PANC-1 cells; assay: Growth curves of PANC-1 cells transfected with p21 siRNA or negative control siRNA; settings: for decrease of growth: PANC-1 cells transfected with negative control siRNAs
# Procedure: as §1
# The p21-targeted siRNAs were obtained from Santa Cruz Biotechnology, and negative control siRNAs were purchased from Ambion (Ambion, Inc., Austin, Tex.). For transfection, 2×10^5 cells per well were seeded in 6-well plates containing 1 ml of media without antibiotics. For each well, 1 μl of siRNA stock (20 μM) was mixed with 175 μl of serum-free media. Two μl of Oligofectamine reagent (Invitrogen, Carlsbad, Calif.) was added to prewashed cells in each well, making the final concentration for siRNA approximately 20 nM. Cells were incubated for 4 hours at 37° C. prior to the addition of OGF. Eighteen hours later, 1 ml fresh complete media with or without OGF was added to the cultures; media and OGF were replaced daily. At the indicated time points, cells were collected for growth curves or Western blotting.
substance,measurement,setting,value
[Met^5]-enkephalin [OGF],"expression of cell cycle inhibitors p15, p18, p19, p21 and p27",[1]; OGF treatment of SCCHN,no significant effect
same,expression of Cdk4 protein,[1]; following OGF exposure,did not change
same,p16 expression,"[1]; synchronized SCC-1 cells, 3 h, 10^-6 M OGF, 10^-5 M naloxone",significantly upregulated; also recorded: significantly elevated
same,cells in the G2/M phase,[2],22.7%
same,cells in the S phase,[2],42.7%
same,percentage of cells in the G0/G1 phase,[2],34.6%
same,p21 expression relative to control cultures,[3],increased p21 expression
same,decrease of growth,[4]; 72 hours,34.1%
same,decrease of growth,[4]; 96 hours,35.5%
same,effect on growth of cells lacking p21,[4]; PANC-1 cells transfected with p21 siRNA,no inhibitory effect
